Source: US5530133A, “7'-amino-naphthazarin antibiotic derivatives” (Gruppo Lepetit SpA, priority 1995, dated 1996)

What was measured:
[1] = tested on: Gardnerella vaginalis ATCC 14018; test: MIC by agar dilution, Gardnerella vaginalis; format: cell-based; details: code 332; Casman medium + rabbit blood; approx. 10^4 cfu; 48 h, 37° C.
[2] = tested on: Trichomonas vaginalis (clin. isol.); test: MIC by broth dilution, Trichomonas vaginalis; format: cell-based; details: code TVL; approx. 10^5 cells/ml; Trichomonas Culture Medium Base + 10% horse serum; 48 h, 37° C.
Procedure: Inocula were approximately 10^4 cfu. Incubation was for 48 hours at 37° C. in nitrogen-carbon dioxide-hydrogen (80:10:10). […] The inoculum was approximately 10^5 cells/ml. After 48 hours of incubation at 37° C. in nitrogen-carbon dioxide-hydrogen (80:10:10) the wells were viewed directly with a microscope to detect the presence of viable (motile) protozoa.

[3] = tested on: Gram-positive and Gram-negative bacteria and fungi; details: according to U.S. Pat. No. 3,914,257; fungi incl. Trichophyton mentagrophytes and Candida albicans; cited from earlier work

| MIC [1] | MIC [2] | SMILES | in vitro antimicrobial activity [3] |
| --- | --- | --- | --- |
| 2 µg/mL | 8 µg/mL | CCNC1=CC(=O)c2c(O)c3c(c(O)c2C1=O)OC1(C3)CC(O)c2cc3cc(C(=O)OC)oc(=O)c3c(O)c2O1 (stereo not shown) [Example 10, 7'-ethylamino purpuromycin] | – |
| – | 2 µg/mL | CNC1=CC(=O)c2c(O)c3c(c(O)c2C1=O)OC1(CCc2cc4cc(C(=O)OC)oc(=O)c4c(O)c2O1)C3 (stereo not shown) [Example 32, 7'-methylamino γ-rubromycin] | – |
| – | – | COC(=O)c1cc2cc3c(c(O)c2c(=O)o1)OC1(Cc2c(O)c4c(c(O)c2O1)C(=O)C(OC)=CC4=O)CC3O (stereo not shown) [purpuromycin] | active in vitro against both Gram-positive and Gram-negative bacteria and fungi |
